Patent US20240350522A1, “HYGROMYCIN A FOR TREATMENT OF DISEASES AND INFECTIONS” (FLIGHTPATH BIOSCIENCES, INC., priority 2021, published 2024)
Where “and” joins values, the source holds several entries; their conditions need not be identical. Equal values may be shown once.

Assays:
Format in all cases: cell-based
[1] = system: Treponema pallidum pallidum SS14 strain; assay: T. pallidum susceptibility assay, co-culture with Sf1Ep cells, tp0574 (T47) qPCR after 7 days; conditions: penicillin 60 ng/ml, 7 days
[2] = system: Treponema pallidum pallidum Chicago strain; assay: as above; conditions: penicillin 60 ng/ml, 7 days
[3] = system: Treponema pallidum pallidum SS14 strain; assay: Treated treponemes seeded onto no-antibiotic plate, 7 more days, T47 qPCR (treponemicidal activity)
[4] = system: Treponema pallidum pallidum Chicago strain; assay: as above
[5] = pre-treated with penicillin 60 ng/ml, seeded on no antibiotic plate, average
[6] = pre-treated with penicillin 60 ng/ml, seeded on no antibiotic plate, replicate wells

Compound: CC1(C)S[C@@H]2[C@H](NC(=O)Cc3ccccc3)C(=O)N2[C@H]1C(=O)O [Pen., penicillin G, reference compound]
- Mean T47 copies/μL, Average ([1]; average of 8 replicates): 216 copies/μL
- Mean T47 copies/μL, experimental values ([1]; replicate wells): 189 copies/μL and 200 copies/μL and 166 copies/μL and 282 copies/μL and 184 copies/μL and 223 copies/μL and 214 copies/μL and 271 copies/μL
- Mean T47 copies/μL, Avg. ([2]; average of 8 replicates): 252 copies/μL
- Mean T47 copies/μL, experimental values ([2]; replicate wells): 294 copies/μL and 226 copies/μL and 304 copies/μL and 137 copies/μL and 328 copies/μL and 261 copies/μL and 222 copies/μL and 241 copies/μL
- treponemicidal activity in words ([3]; SS14 strain, 60 ng/ml): treponemicidal
- Mean T47 copies/μL, Avg. [3, 5]: 18 copies/μL
- Mean T47 copies/μL, Expt. values [3, 6]: 21 copies/μL (2×) and 17 copies/μL and 24 copies/μL and 10 copies/μL and 13 copies/μL and 27 copies/μL and 15 copies/μL
- treponemicidal activity in words ([4]; Chicago strain, 60 ng/ml): treponemicidal
- Mean T47 copies/μL, Avg. [4, 5]: 26 copies/μL
- Mean T47 copies/μL, Expt. values [4, 6]: 12 copies/μL (2×) and 41 copies/μL and 74 copies/μL and 22 copies/μL (2×) and 15 copies/μL and 11 copies/μL
